Paper PMC10174618, “Monoterpenoid aryl hydrocarbon receptor allosteric antagonists protect against ultraviolet skin damage in female mice” (Nature Communications, 2023)

Columns and labels:
Assay in all cases: biochemical
Set-up in all cases: KINOMEscan scanMAX active site-directed competition binding assay, percent of control, 468 kinases
Details in all cases: competition binding, percent of control
SRPK3 = SRPK3 (Homo sapiens, UniProt Q9UPE1)
Method in brief: (§1)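 KINOMEscan active site-directed competition binding assay against 468 human kinases with 100 μM S-carvone. Binding expressed as % of control, with 35% of control as the inhibition threshold.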

CAMK4 = CAMK4 (Homo sapiens, UniProt Q16566)
CAMK4, sequence (Q16566 whole entry): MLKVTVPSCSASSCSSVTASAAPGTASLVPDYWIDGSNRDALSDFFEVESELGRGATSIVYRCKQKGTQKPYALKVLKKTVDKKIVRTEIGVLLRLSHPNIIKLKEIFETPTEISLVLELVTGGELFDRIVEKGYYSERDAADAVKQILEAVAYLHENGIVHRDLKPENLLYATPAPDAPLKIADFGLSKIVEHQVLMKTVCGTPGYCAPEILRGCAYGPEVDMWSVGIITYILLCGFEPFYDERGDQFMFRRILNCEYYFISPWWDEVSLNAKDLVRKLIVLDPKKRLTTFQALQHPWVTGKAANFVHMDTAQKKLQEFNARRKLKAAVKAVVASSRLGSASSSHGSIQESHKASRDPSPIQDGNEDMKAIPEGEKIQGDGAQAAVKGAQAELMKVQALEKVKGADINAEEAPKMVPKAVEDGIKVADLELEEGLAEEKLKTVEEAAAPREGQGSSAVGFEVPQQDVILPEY
Method in brief: as §1

PDGFRA = PDGFRA (Homo sapiens, UniProt P16234)
PDGFRA, sequence (P16234 whole entry): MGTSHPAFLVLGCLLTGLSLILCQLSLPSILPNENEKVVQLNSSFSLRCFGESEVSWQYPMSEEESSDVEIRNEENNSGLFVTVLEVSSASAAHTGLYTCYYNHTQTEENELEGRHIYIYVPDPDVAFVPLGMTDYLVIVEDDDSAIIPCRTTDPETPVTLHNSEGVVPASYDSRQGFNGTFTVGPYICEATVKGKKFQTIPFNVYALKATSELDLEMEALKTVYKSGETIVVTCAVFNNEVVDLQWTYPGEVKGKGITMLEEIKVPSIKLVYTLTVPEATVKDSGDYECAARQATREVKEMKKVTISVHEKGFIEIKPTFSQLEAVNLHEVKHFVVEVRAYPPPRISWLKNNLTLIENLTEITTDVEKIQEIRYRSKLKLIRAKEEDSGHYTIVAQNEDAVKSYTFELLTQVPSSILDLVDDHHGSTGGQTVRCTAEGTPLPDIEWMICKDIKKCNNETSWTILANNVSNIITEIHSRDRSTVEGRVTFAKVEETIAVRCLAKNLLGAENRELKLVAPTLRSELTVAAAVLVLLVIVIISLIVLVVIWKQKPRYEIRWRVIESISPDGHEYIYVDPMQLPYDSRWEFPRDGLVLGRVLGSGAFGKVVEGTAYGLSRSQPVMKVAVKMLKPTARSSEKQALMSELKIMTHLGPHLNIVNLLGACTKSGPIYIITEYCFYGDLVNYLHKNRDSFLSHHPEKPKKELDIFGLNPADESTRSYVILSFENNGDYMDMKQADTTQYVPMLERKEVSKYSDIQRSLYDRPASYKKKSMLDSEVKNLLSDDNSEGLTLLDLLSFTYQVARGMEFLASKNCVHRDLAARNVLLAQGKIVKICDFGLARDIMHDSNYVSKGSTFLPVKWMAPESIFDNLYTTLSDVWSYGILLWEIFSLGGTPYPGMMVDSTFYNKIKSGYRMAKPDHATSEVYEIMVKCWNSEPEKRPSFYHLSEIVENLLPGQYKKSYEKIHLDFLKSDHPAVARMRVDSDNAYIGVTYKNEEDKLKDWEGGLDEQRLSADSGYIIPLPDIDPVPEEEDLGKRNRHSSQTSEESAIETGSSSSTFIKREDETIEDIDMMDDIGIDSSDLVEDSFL
Method in brief: as §1

STK39 = STK39 (Homo sapiens, UniProt Q9UEW8)
Method in brief: as §1

TAOK1 = TAOK1 (Homo sapiens, UniProt Q7L7X3)
Method in brief: as §1

EPHA7 = EPHA7 (Homo sapiens, UniProt Q15375)
Method in brief: as §1

CDC2L2 = molecular target: T1, CDC2L2 (Homo sapiens, UniProt Q9UQ88)
T1 construct: gene CDK11A
Method in brief: as §1

EPHB1 = EPHB1 (Homo sapiens, UniProt P54762)
Method in brief: as §1

CSNK2A2 = CSNK2A2 (Homo sapiens, UniProt P19784)
Method in brief: as §1

PRKX = PRKX (Homo sapiens, UniProt P51817)
Method in brief: as §1

LOK = molecular target: T2, LOK (Homo sapiens, UniProt O94804)
T2 construct: gene STK10
Method in brief: as §1

MARK3 = MARK3 (Homo sapiens, UniProt P27448)
Method in brief: as §1

[1] = molecular target: EGFR(L747-E749del, A750P) (Homo sapiens, UniProt P00533, A750P/DEL747-749)
Method in brief: as §1

MAP3K15 = MAP3K15 (Homo sapiens, UniProt Q6ZN16)
MAP3K15, sequence (Q6ZN16 whole entry): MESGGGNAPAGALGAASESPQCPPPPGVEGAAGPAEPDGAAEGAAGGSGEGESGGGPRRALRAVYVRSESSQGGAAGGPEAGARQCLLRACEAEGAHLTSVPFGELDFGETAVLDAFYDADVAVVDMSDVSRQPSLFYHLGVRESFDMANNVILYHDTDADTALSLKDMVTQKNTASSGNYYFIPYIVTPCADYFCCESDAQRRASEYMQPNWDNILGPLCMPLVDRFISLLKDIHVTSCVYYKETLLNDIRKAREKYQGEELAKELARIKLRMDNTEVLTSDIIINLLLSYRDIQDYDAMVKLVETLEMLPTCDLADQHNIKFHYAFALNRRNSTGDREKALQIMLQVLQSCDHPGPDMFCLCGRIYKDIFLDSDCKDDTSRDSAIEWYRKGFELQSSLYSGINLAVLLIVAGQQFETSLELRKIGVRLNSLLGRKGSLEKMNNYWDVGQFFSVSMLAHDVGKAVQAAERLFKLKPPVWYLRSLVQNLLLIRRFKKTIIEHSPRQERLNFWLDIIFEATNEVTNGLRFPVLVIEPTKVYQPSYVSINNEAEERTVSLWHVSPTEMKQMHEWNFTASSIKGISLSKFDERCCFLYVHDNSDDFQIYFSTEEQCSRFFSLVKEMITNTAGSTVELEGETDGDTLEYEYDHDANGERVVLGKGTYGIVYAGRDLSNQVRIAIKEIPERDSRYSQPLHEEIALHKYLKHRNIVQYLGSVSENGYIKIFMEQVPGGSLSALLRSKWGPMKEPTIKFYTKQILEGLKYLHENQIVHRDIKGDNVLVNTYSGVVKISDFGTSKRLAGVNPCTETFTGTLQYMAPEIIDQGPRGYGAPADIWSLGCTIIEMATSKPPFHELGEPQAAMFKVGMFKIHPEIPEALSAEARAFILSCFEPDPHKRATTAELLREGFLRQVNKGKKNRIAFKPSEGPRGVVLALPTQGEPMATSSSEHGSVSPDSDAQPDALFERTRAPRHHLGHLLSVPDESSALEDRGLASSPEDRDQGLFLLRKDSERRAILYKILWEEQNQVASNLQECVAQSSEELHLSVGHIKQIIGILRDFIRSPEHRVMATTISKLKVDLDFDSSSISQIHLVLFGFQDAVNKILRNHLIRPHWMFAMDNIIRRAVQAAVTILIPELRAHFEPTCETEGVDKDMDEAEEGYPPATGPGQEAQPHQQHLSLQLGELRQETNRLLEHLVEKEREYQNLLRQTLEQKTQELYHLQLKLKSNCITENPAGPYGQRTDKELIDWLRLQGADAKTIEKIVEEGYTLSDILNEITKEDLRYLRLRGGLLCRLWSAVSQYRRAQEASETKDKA
Method in brief: as §1

CSNK2A1 = CSNK2A1 (Homo sapiens, UniProt P68400)
Method in brief: as §1

CDKL3 = CDKL3 (Homo sapiens, UniProt Q8IVW4)
Method in brief: as §1

AURKA = AURKA (Homo sapiens, UniProt O14965)
AURKA, sequence (O14965 whole entry): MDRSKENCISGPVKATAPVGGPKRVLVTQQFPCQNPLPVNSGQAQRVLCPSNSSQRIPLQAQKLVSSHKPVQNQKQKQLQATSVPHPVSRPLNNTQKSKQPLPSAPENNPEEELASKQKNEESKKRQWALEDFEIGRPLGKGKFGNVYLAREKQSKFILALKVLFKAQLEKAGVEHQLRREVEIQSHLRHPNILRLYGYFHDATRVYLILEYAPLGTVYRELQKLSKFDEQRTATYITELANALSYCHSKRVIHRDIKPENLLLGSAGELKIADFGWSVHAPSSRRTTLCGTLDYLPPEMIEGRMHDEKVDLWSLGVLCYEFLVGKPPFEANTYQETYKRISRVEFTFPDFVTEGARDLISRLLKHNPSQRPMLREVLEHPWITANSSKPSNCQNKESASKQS
Method in brief: as §1

KIT(A829P) = KIT(A829P) (Homo sapiens, UniProt P10721, A829P)
Method in brief: as §1

ABL1-phosphorylated = molecular target: T3, ABL1-phosphorylated (Homo sapiens, UniProt P00519)
T3 construct: phosphorylated
T3 sequence (P00519 whole entry): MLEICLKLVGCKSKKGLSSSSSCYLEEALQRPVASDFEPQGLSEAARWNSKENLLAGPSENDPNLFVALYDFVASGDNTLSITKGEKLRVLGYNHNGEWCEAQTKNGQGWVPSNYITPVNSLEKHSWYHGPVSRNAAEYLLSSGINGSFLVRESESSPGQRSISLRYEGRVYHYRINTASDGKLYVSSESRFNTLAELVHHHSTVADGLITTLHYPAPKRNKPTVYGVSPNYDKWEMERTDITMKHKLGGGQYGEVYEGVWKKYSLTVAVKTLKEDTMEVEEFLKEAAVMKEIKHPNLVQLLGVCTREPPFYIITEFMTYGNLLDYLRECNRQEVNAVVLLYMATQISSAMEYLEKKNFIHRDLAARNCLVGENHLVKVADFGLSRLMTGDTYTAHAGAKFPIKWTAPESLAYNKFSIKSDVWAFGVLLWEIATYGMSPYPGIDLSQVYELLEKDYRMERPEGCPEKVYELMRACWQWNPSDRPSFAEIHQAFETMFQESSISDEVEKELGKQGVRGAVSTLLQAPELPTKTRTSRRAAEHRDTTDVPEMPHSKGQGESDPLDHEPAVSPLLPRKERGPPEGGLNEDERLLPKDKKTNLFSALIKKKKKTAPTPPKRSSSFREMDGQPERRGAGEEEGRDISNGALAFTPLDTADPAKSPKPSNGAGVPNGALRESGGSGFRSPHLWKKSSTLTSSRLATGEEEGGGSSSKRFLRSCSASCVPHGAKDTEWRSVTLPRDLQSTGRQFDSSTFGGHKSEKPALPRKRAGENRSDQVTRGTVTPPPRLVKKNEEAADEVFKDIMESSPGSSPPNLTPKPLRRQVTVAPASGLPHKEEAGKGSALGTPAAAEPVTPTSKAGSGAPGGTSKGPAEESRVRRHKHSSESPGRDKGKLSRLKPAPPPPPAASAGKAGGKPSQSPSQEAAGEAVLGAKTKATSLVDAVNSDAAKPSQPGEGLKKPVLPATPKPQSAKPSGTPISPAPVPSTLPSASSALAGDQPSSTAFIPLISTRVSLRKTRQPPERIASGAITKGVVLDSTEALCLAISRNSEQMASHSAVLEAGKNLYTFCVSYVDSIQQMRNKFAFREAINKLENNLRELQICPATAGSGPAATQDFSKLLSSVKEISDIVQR
Method in brief: as §1

STK16 = STK16 (Homo sapiens, UniProt O75716)
Method in brief: as §1

[2] = molecular target: T4, JAK2(JH1domain-catalytic) (Homo sapiens, UniProt O60674)
T4 construct: JH1domain-catalytic
Method in brief: as §1

SRPK3, sequence (Q9UPE1 whole entry): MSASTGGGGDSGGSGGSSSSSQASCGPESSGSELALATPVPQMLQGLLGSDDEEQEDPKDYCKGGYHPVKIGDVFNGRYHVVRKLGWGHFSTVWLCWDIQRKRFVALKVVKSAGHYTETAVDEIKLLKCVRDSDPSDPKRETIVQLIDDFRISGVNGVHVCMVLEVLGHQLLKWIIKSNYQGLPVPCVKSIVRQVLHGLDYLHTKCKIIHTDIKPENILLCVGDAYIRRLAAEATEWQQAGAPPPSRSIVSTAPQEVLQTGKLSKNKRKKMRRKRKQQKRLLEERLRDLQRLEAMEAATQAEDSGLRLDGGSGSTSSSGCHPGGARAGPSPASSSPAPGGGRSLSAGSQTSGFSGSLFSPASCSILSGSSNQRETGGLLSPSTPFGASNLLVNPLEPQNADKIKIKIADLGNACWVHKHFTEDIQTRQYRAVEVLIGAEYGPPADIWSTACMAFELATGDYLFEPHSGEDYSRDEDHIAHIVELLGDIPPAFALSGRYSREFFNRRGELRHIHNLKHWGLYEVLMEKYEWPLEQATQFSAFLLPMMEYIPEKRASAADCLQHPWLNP

remaining binding at 100 µM (SRPK3): 61%
remaining binding at 100 µM (CAMK4): 70%
remaining binding at 100 µM (PDGFRA): 80%
remaining binding at 100 µM (STK39): 80%
remaining binding at 100 µM (TAOK1): 82%
remaining binding at 100 µM (EPHA7): 91%
remaining binding at 100 µM (CDC2L2): 82%
remaining binding at 100 µM (EPHB1): 88%
remaining binding at 100 µM (CSNK2A2): 87%
remaining binding at 100 µM (PRKX): 100%
remaining binding at 100 µM (LOK): 87%
remaining binding at 100 µM (MARK3): 68%
remaining binding at 100 µM [1]: 86%
remaining binding at 100 µM (MAP3K15): 93%
remaining binding at 100 µM (CSNK2A1): 71%
remaining binding at 100 µM (CDKL3): 89%
remaining binding at 100 µM (AURKA): 81%
remaining binding at 100 µM (KIT(A829P)): 84%
remaining binding at 100 µM (ABL1-phosphorylated): 73%
remaining binding at 100 µM (STK16): 90%
remaining binding at 100 µM [2]: 78%
SMILES: C=C(C)[C@H]1CC=C(C)C(=O)C1 [S-carvone]
